Where two headings read alike, the source gives them in different places.
Target: T1, cloned human MC4R (Homo sapiens, UniProt P32245)
T1 construct: made in house; host or cells: Hi5 insect cells (baculovirus infection); membrane preparation
Assay: Membrane binding assay: competitive inhibition of [125I]NDP-α-MSH binding
Settings: for inhibition at 10 µM: read-out: Displacement Rate (%) (at 10 μM); for IC50: read-out: MC4R IC50
Description: Hi5 cells are infected using the following protocol: Cells at a density of 1×10^6 cells/mL are spun down at 1000 rpm (Beckman GS-6KR centrifuge) for 10 minutes. Cells are resuspended in 10% of their original volume in a sterile 50 mL conical centrifuge tube wrapped with aluminum foil. Virus is added at a Multiplicity of Infection (MOI) of 3 and incubated for 1 hour at room temperature with gentle shaking. […] Cells are spun down in 50 mL conical centrifuge tubes at 1000 rpm for 10 minutes. Each of the resulting pellets are resuspended in 10 mL of cold (4° C.) membrane buffer (25 mM HEPES, pH 7.4, 140 mM NaCl, 1.2 mM MgCl2, 2.5 mM CaCl2, 10 μG/mL Aprotinin, 10 μG/mL Leupeptin) and Dounce homogenized using 10-12 strokes. […] The resulting pellet is resuspended in cold membrane buffer in a total of ¼ of the original volume by vortexing and aspiration using a syringe and 27 gauge needle. Protein content is determined (Bradford, Bio-Rad Protein Assay). Membranes are aliquoted in microcentrifuge tubes and quick frozen in liquid nitrogen. Store at −80° C. until use. The membrane binding buffer is composed of 25 mM HEPES, pH 7.4, 140 mM NaCl, 1.2 mM MgCl2, 2.5 mM CaCl2, 0.1% BSA. […] The mixture is filtered with Brandel Microplate 96 filter apparatus using 96-well GF/B filter presoaked in 1-% polyethyleneimine (Sigma). The filter is washed (4 times with a total of 1 mL per well) with cold wash buffer consisting of 20 mM HEPES, pH 7.4, 5 mM MgCl2. […] 100 μl of Wallac Optiphase Supermix scintillation fluid is added to each well. The top is sealed and the plates are shaken to insure that the filters are thoroughly soaked with fluid. […] Dose-response curves are fitted by […] analyses and IC50 values are calculated using ExcelFit.

[1] = at 10 μM, [125I]NDP-α-MSH displacement

T1 sequence (P32245 whole entry): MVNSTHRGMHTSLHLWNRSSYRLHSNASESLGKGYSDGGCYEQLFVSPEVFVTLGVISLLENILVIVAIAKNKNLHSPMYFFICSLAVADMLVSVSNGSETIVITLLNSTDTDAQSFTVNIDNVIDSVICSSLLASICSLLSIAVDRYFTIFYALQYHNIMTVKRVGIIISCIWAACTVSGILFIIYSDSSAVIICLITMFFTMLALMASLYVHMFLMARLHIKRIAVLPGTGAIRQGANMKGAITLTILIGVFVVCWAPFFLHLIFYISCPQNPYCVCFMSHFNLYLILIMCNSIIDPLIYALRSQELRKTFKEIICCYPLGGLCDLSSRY

inhibition at 10 µM [1] [%]	IC50 [µM]	SMILES	inhibition at 10 µM [%]
91 to 100	< 1.5	N[C@@H](Cc1ccc(OCc2ccccc2)cc1)C(=O)N1CCCN(Cc2ccc(C(c3ccccc3)c3ccccc3)cc2)CC1 [Example 1]	
91 to 100	1.5 to 3	N[C@@H](Cc1ccc(OCc2ccccc2)cc1)C(=O)N1CCCN(Cc2ccccc2Sc2ccc(Cl)cc2)CC1 [Example 2]	
91 to 100	< 1.5	CCn1c2ccccc2c2cc(CN3CCCN(C(=O)[C@@H](N)Cc4ccc(OCc5ccccc5)cc4)CC3)ccc21 [Example 3]	
91 to 100	< 1.5	N[C@@H](Cc1ccc(OCc2ccccc2)cc1)C(=O)N1CCCN(Cc2cccc(Oc3cc(Cl)cc(Cl)c3)c2)CC1 [Example 4]	
91 to 100	1.5 to 3	N[C@@H](Cc1ccc(OCc2ccccc2)cc1)C(=O)N1CCCN(Cc2ccc(-c3ccc(Cl)cc3)o2)CC1 [Example 6]	
91 to 100	1.5 to 3	N[C@@H](Cc1ccc(OCc2ccccc2)cc1)C(=O)N1CCCN(Cc2ccc(-c3ccccc3)cc2)CC1 [Example 8]	
91 to 100	< 1.5	N[C@@H](Cc1ccc(OCc2ccccc2)cc1)C(=O)N1CCCN(Cc2cn(Cc3ccccc3)c3ccccc23)CC1 [Example 9]	
91 to 100	1.5 to 3	N[C@@H](Cc1ccc(OCc2ccccc2)cc1)C(=O)N1CCCN(Cc2ccc3c(c2)Cc2ccccc2-3)CC1 [Example 10]	
91 to 100	< 1.5	N[C@@H](Cc1ccc(OCc2ccccc2)cc1)C(=O)N1CCCN(Cc2ccc(/C=C/c3ccccc3)cc2)CC1 [Example 11]	
91 to 100	< 1.5	N[C@@H](Cc1ccc(OCc2ccccc2)cc1)C(=O)N1CCCN(Cc2cc(OCc3ccccc3)cc(OCc3ccccc3)c2)CC1 [Example 12]	
91 to 100	1.5 to 3	N[C@@H](Cc1ccc(OCc2ccccc2)cc1)C(=O)N1CCCN(Cc2ccc(OCc3ccccc3)cc2)CC1 [Example 13]	
91 to 100	< 1.5	CCCCCCCCOc1ccc(CN2CCCN(C(=O)[C@@H](N)Cc3ccc(OCc4ccccc4)cc3)CC2)cc1 [Example 14]	
91 to 100	1.5 to 3	COc1cc(CN2CCCN(C(=O)[C@@H](N)Cc3ccc(OCc4ccccc4)cc3)CC2)ccc1OCc1ccc([N+](=O)[O-])cc1 [Example 15]	
91 to 100	< 1.5	N[C@@H](Cc1ccc(OCc2ccccc2)cc1)C(=O)N1CCCN(Cc2cccc(Oc3cccc(C(F)(F)F)c3)c2)CC1 [Example 16]	
91 to 100	1.5 to 3	N[C@@H](Cc1ccc(OCc2ccccc2)cc1)C(=O)N1CCCN(Cc2ccc(Cl)c(Cl)c2)CC1 [Example 17]	
91 to 100	< 1.5	Cc1ccc(S(=O)(=O)n2cc(CN3CCCN(C(=O)[C@@H](N)Cc4ccc(OCc5ccccc5)cc4)CC3)c3ccccc32)cc1 [Example 18]	
91 to 100	< 1.5	N[C@@H](Cc1ccc(OCc2ccccc2)cc1)C(=O)N1CCCN(Cc2cccc(Oc3ccc(Cl)c(Cl)c3)c2)CC1 [Example 19]	
91 to 100	1.5 to 3	N[C@@H](Cc1ccc(OCc2ccccc2)cc1)C(=O)N1CCCN(Cc2ccc(-c3cccc([N+](=O)[O-])c3)o2)CC1 [Example 21]	
91 to 100	> 3	N[C@@H](Cc1ccc(OCc2ccccc2)cc1)C(=O)N1CCCN(Cc2ccccc2C(F)(F)F)CC1 [Example 22]	
91 to 100	> 3	N[C@@H](Cc1ccc(OCc2ccccc2)cc1)C(=O)N1CCCN(CC(c2ccccc2)c2ccccc2)CC1 [Example 23]	
91 to 100	< 1.5	CCOc1ccc(CN2CCCN(C(=O)[C@@H](N)Cc3ccc(OCc4ccccc4)cc3)CC2)c(OCC)c1C [Example 24]	
91 to 100	< 1.5	N[C@@H](Cc1ccc(OCc2ccccc2)cc1)C(=O)N1CCCN(Cc2ccc(C(F)(F)F)cc2)CC1 [Example 25]	
71 to 90	1.5 to 3	CC(C)(C)c1cc(CN2CCCN(C(=O)[C@@H](N)Cc3ccc(OCc4ccccc4)cc3)CC2)cc(C(C)(C)C)c1O [Example 26]	
71 to 90	< 1.5	N[C@@H](Cc1ccc(OCc2ccccc2)cc1)C(=O)N1CCCN(Cc2ccc(OCc3ccc([N+](=O)[O-])cc3)cc2)CC1 [Example 27]	

inhibition at 10 µM [1] [%]	IC50 [µM]	SMILES	inhibition at 10 µM [%]
71 to 90	> 3	N[C@@H](Cc1ccc(OCc2ccccc2)cc1)C(=O)N1CCCN(Cc2ccc(C(F)(F)F)cc2F)CC1 [Example 28]	
71 to 90	1.5 to 3	COc1cc(CN2CCCN(C(=O)[C@@H](N)Cc3ccc(OCc4ccccc4)cc3)CC2)ccc1OCc1ccccc1 [Example 29]	
71 to 90	1.5 to 3	COc1cc(OC)c(CN2CCCN(C(=O)[C@@H](N)Cc3ccc(OCc4ccccc4)cc3)CC2)cc1Br [Example 31]	
71 to 90	< 1.5	CCCCCOc1ccc(CN2CCCN(C(=O)[C@@H](N)Cc3ccc(OCc4ccccc4)cc3)CC2)cc1 [Example 32]	
71 to 90	1.5 to 3	N[C@@H](Cc1ccc(OCc2ccccc2)cc1)C(=O)N1CCCN(Cc2ccc(Oc3ccccc3)cc2)CC1 [Example 33]	
71 to 90	1.5 to 3	CCCCc1ccc(CN2CCCN(C(=O)[C@@H](N)Cc3ccc(OCc4ccccc4)cc3)CC2)cc1 [Example 35]	
71 to 90	> 3	Cc1ccc(C)c(CN2CCCN(C(=O)[C@@H](N)Cc3ccc(OCc4ccccc4)cc3)CC2)c1 [Example 36]	
71 to 90	> 3	N[C@@H](Cc1ccc(OCc2ccccc2)cc1)C(=O)N1CCCN(Cc2ccnc3ccccc23)CC1 [Example 37]	
71 to 90	> 3	CCc1ccc(CN2CCCN(C(=O)[C@@H](N)Cc3ccc(OCc4ccccc4)cc3)CC2)cc1 [Example 38]	
71 to 90	1.5 to 3	CC(C)(C)c1ccc(CN2CCCN(C(=O)[C@@H](N)Cc3ccc(OCc4ccccc4)cc3)CC2)cc1 [Example 39]	
71 to 90	> 3	CCOc1cccc(CN2CCCN(C(=O)[C@@H](N)Cc3ccc(OCc4ccccc4)cc3)CC2)c1O [Example 40]	
71 to 90	> 3	N[C@@H](Cc1ccc(OCc2ccccc2)cc1)C(=O)N1CCCN(C2CCC(c3ccccc3)CC2)CC1 (stereo partly shown) [Example 41]	
71 to 90	> 3	N[C@@H](Cc1ccc(OCc2ccccc2)cc1)C(=O)N1CCCN(CCCc2ccccc2)CC1 [Example 42]	
71 to 90	1.5 to 3	COc1ccc2ccccc2c1CN1CCCN(C(=O)[C@@H](N)Cc2ccc(OCc3ccccc3)cc2)CC1 [Example 43]	
71 to 90	1.5 to 3	CC(Cc1cccc(C(F)(F)F)c1)N1CCCN(C(=O)[C@@H](N)Cc2ccc(OCc3ccccc3)cc2)CC1 (stereo partly shown) [Example 44]	
35 to 70	> 3	CCc1ccc(CN2CCCN(C(=O)[C@@H](N)Cc3ccc(OCc4ccccc4)cc3)CC2)s1 [Example 45]	
35 to 70	> 3	CCCCCCCN1CCCN(C(=O)[C@@H](N)Cc2ccc(OCc3ccccc3)cc2)CC1 [Example 46]	
35 to 70	> 3	N[C@@H](Cc1ccc(OCc2ccccc2)cc1)C(=O)N1CCCN(Cc2cccc3ccccc23)CC1 [Example 47]	
35 to 70	> 3	Cc1ccsc1CN1CCCN(C(=O)[C@@H](N)Cc2ccc(OCc3ccccc3)cc2)CC1 [Example 48]	
35 to 70	> 3	CC(COc1ccccc1)N1CCCN(C(=O)[C@@H](N)Cc2ccc(OCc3ccccc3)cc2)CC1 (stereo partly shown) [Example 49]	
35 to 70	> 3	CCOc1ccccc1CN1CCCN(C(=O)[C@@H](N)Cc2ccc(OCc3ccccc3)cc2)CC1 [Example 50]	
35 to 70	> 3	N[C@@H](Cc1ccc(OCc2ccccc2)cc1)C(=O)N1CCCN(Cc2ccc3ccccc3c2)CC1 [Example 51]	
35 to 70	> 3	N[C@@H](Cc1ccc(OCc2ccccc2)cc1)C(=O)N1CCCN(Cc2ccc(Cl)cc2Cl)CC1 [Example 52]	

SMILES	inhibition at 10 µM [1] [%]	IC50 [µM]	inhibition at 10 µM [%]
N[C@@H](Cc1ccc(OCc2ccccc2)cc1)C(=O)N1CCCN(Cc2c3ccccc3cc3ccccc23)CC1 [Example 20]		> 3	91 to 100
N[C@@H](Cc1ccc(OCc2ccccc2)cc1)C(=O)N1CCCN(C2CCc3ccccc3C2)CC1 (stereo partly shown) [Example 30]		> 3	71 to 90
N[C@@H](Cc1ccc(OCc2ccccc2)cc1)C(=O)N1CCCN(Cc2cc([N+](=O)[O-])ccc2Cl)CC1 [Example 34]		> 3	71 to 90

— patent publication US6916812B2, “Alpha-aminoamide derivatives as melanocortin agonists” (Bristol-Myers Squibb Company, priority 2001, dated 2005)
